Experimental findings from patent EP3485874A1, “METHOD OF PREPARING A NATURAL DEEP EUTECTIC SOLVENT (NADES)-ACTIVE INGREDIENT SYSTEM; A NADES-, AND PREFERABLY A POLYMERIC PRECIPITATION INHIBITOR CONTAINING NADES-, BASED DRUG FORMULATION TECHNOLOGY AND DEVELOPMENT METHOD” (SeraNovo B.V., priority 2017, dated 2019) are described below.

Converted amounts (≈) assume the structure as drawn. Read-outs that look alike come from different tables or passages of the source. A value given as a limit tells only on which side of the number the result lay.

Common to all, as to format: physicochemical
Series [1] is described as follows: pKa of the active ingredient. An excerpt:
Further, the analysis also at least involves determination of acidity/basicity of the compound by determining the pKa value by standard methods. In the case of previously analyzed compounds such information typically available in published literature.

Series [2] in a line: Solubility of the active ingredient in NADES. The following applies: thermodynamic from solid. As to the method: Subsequently, selected constituents are weighed out in the appropriate molar ratios and corresponding masses and are added to a suitable receptacle, such as a small bottle or other small vessel. In the receptacle generally a stirring element is added, such as a stirring flea. If two or more solid constituents are present, these are generally heated, for instance to about 70°C. When at least one liquid constituent is present, it is generally not needed to heat the system to temperatures higher than about 50°C. The constituents are stirred. When two (or more) solid constituents are mixed, this often leads to high or very high viscosities, in which case addition of some water or other liquid excipients such as propylene glycol is recommended. The stirring is continued until a clear liquid is formed.
After a clear liquid is obtained, it is preferred to let it cool and sit for 24 hours or so, as a check for stability. If a NADES is not stable at RT (room temperature; in other words, if the eutectic point is higher than RT at the selected molar ratio), one can try adding additional constituents or trying a different molar ratio.
Once cooled, the pH of the system is measured. An acidic NADES will in general be good at solubilizing a basic active ingredient due to protonation and vice versa. The stability can also be influenced by the pH, where usually a range of pH values is given that results in the best stability.
Usually it is apparent within an hour whether or not a solvent is going to achieve any worthwhile solubility value. If the solute sticks to the side of the receptacle and/or floats on top, investigation into this solvent can be terminated. If the solute makes for a cloudy solution, further dilution may yield success.

Series [3] can be described thus: Solubility of the active ingredient in comparable solvents (polar to nonpolar). As for the experimental part:
These values are expressed in mg/ml and determined at a temperature of 25°C at 1 atm. In a preferred embodiment, also the solubility is determined in water-based systems having different pH's, or having different temperatures; and in water-based systems wherein co-solvents are present; and in stomach or intestinal media. Solubility information in a broad range of solvents (including oils, dichloromethane, methanol), is useful because the knowledge of in which type of solvents the active ingredient dissolves well, helps in designing a NADES with similar properties.

Series [4] can be described thus: Particle size of precipitate after about 100 fold dilution of the NADES:PPI formulation with intestinal medium (FaSSIF), optical microscopy. As for the experimental part:
All PPI's that are soluble at approximately a PPI to active ingredient ratio of 1 to 5 are selected for the next stage of testing. A small sample of for example 100 µl is taken from the NADES:PPI mixture and the appropriate mass of active ingredient is solubilized in the system as above. Each NADES: PPI: active ingredient sample is diluted approximately 100 fold with intestinal medium solutions e.g. Fast State Simulated Intestinal Fluid (FaSSIF). The system with the smallest particle size over a 2 hour period is determined to be the best performing formulation. The particle size is determined using visual inspection and optical microscopy.
The precipitant molecules should in this light have a size less than approximately 10/µm, preferably less than 5µm and ideally less than about 1µm. These sizes are measured at 10 minute intervals over a 2 hours period to analyse the crystal growth. The crystal sizes are monitored using an optical microscope in initial samples; yet are more accurately measured after 2 hours using a Malvern Mastersizer 3000 or similar particle sizing equipment.
Below are microscope images of formulations of flufenamic acid diluted with intestinal medium. The dilution is approximately similar to 1ml of formulation being released into the intestine. The goal is to have sufficiently small particle sizes for a sufficiently long period of time to promote drug absorption. Figures 1, 2 and 3 show progressions in particle size of flufenamic acid in formulations designed using the present invention.
The following example is of a poorly water-soluble molecule, Paclitaxel, and the process of designing a system using the aforementioned invention. […] The second objective was to select one or more PPI's capable of controlling the size of precipitant upon an approximately 100 fold dilution with intestinal medium. The target dose of the formulation was 30mg/ml. The variation in particle size between formulations was analysed with visual inspection. The best performing formulations were compared with a size calibrated optical microscope and camera.

Series [5] can be described thus: Stability of the active ingredient (pH, storage). As for the experimental part:
Suitable secondary criteria are for instance the absolute oral bioavailability, typically denoted as a percentage of the maximum bioavailability of 100% which is defined as the bioavailability of the intravenous formulation as measured in a living being such as those used in animal trials or in human trials. Bioavailability is measured as the AUC (Area Under Curve) of the plasma concentration of a drug collected over a certain period of time, which depends on the half-life of the drug. Another suitable criterion is the stability data (such as temperature sensibility and pH range of stability expressed in time units). This is expressed as a duration in days/months/years where the compound has not undergone unacceptable levels of degradation (<10%) in specific conditions e.g. low pH.

Where [6] appears, read: NADES, organic solvent or mixture, Choline Chloride: Propylene Glycol (1:3), pH 6.71.

Consider `O=C(O)c1ccccc1Nc1cccc(C(F)(F)F)c1` [Flufenamic acid], for which the pKa in series [1] (read-out: pKa) turned out to be 3.65. For the same compound, the solubility was 28 mg/mL (≈ 99.6 mM) in series [2] (setting [6]); less than 1 mg/mL in series [2] (aqueous with cosolvent or surfactant or cyclodextrin, Choline chloride: Lactic acid: water (2:1:2), pH 2.19, polar NADES); 93.1 mg/mL (≈ 331 mM) in series [2] (organic solvent or mixture, Acetamide: Propylene Glycol (1:2), pH 6.47, basic NADES); 50 mg/mL (≈ 178 mM) in series [2] (organic solvent or mixture, Acetamide: Propylene Glycol (1:3), pH 6.89, basic NADES); 28 mg/mL (≈ 99.6 mM) in series [2] (organic solvent or mixture, Choline Chloride: Ethylene Glycol (1:3), pH 6.08, neutral NADES); less than 1 mg/mL in series [2] (organic solvent or mixture, Choline chloride: glucose: butylene glycol (2:1:1), polar NADES). Also, the solubility was less than 1 mg/mL in series [2] (organic solvent or mixture, Sorbitol: Urea (1:1), pH 8.3, polar NADES); greater than 50 mg/mL in series [3] (dimethyl sulfoxide, 25 °C, organic solvent or mixture, read-out: solubility in dimethyl sulfoxide); greater than 50 mg/mL in series [3] (ethanol, 25 °C, organic solvent or mixture, read-out: solubility in ethanol); 0.009 mg/mL (≈ 0.032 mM) in series [3] (water, 25°C and 1atm, read-out: Water solubility). Also, the solubility in cyclohexane result in series [3] (cyclohexane) is “very low”. Moreover, the solubility in hexane entry in series [3] (hexane) is “very low”. The “solubility in mineral oil (paraffin oil)” value in series [3] (mineral oil (paraffin oil)) is on record as “very low”. The Water solubility entry in series [3] (water, 25°C and 1atm) is on record as “very low”. Also, the “Particle size result (microscope photograph, Fig. 2)” value in series [4] (28 mg/ml in choline chloride: propylene glycol (1:3) with 14 mg/ml Polyethylene Glycol-4000 solubilized in FaSSIF, 40x magnification) is “poor result”. Further, in series [4] (28 mg/ml in choline chloride: propylene glycol (1:3) with 56 mg/ml Polyethylene Glycol-4000 solubilized in FaSSIF, 40x magnification), the “Particle size result (microscope photograph, Fig. 3)” value is on record as “good result”. Further, the Stability result in series [5] (both acidic and basic aqueous solutions, period of 3 months at RT) was “stable”.

On to `CC(=O)O[C@H]1C(=O)[C@@]2(C)[C@H]([C@H](OC(=O)c3ccccc3)[C@]3(O)C[C@H](OC(=O)[C@H](O)[C@@H](NC(=O)c4ccccc4)c4ccccc4)C(C)=C1C3(C)C)[C@]1(OC(C)=O)CO[C@@H]1C[C@@H]2O` [Paclitaxel], for which the pKa in series [1] and in series [1] (read-out: pKa) was 11.9 throughout. For the same compound, the solubility in series [2] (setting [6]) was 30 mg/mL (≈ 35.1 mM); in series [2] (aqueous with cosolvent or surfactant or cyclodextrin, Malic acid: Beta alanine: Water (1:1:2), pH 3.43, acidic NADES), less than 1 mg/mL; in series [2] (aqueous with cosolvent or surfactant or cyclodextrin, Sucrose: Glucose: Fructose: Water (1:1:1:8), pH 3.36, polar NADES) it was less than 1 mg/mL; in series [2] (pH 9.8, aqueous with cosolvent or surfactant or cyclodextrin, Choline Chloride: Urea: Water (1:1:2), pH 9.80, polar NADES), less than 1 mg/mL; in series [3] (caster oil, 25 °C, oil or lipid, read-out: approximate solubility in caster oil) it was 15 to 20 mg/mL (≈ 17.6 to 23.4 mM); in series [3] (olive oil, 25 °C, oil or lipid, read-out: approximate solubility in olive oil), 15 to 20 mg/mL (≈ 17.6 to 23.4 mM). In series [3] (ethanol), this compound gave a solubility in ethanol of 1.5 mg/mL (≈ 1.76 mM). The “Particle size result (microscope photograph, Fig. 4)” value in series [4] (30 mg/ml in choline chloride: propylene glycol (1:3) with 30 mg/ml hypromellose acetate succinate solubilized in FaSSIF, 40x magnification) is listed as “good result”. Moreover, the “Particle size, majority of observable particles (Fig. 4)” value in series [4] (formulation diluted with intestinal medium, particles less than 1 µm not detected by optical microscopy) is “less than 10 µm”. Besides, the “pH range in which most stable” value in series [5] was 3-6 pH. The “Stability at basic pH” value in series [5] (basic pH (8)) was “degrades quickly”.

Usually pKa stands for the negative logarithm of the acid dissociation constant. Usually solubility stands for how much of the substance goes into solution per volume.
